According to patent US20240390340A1 (INCYTE CORPORATION, priority 2023, published 2024):
Where two headings read alike, the source gives them in different places.

What was measured:
[1] = target: KRAS G12V (Homo sapiens, UniProt P01116, G12V); assay: GDP-GTP exchange assay (bodipy-GDP/GppNHp, SOS1), KRAS G12V; format: biochemical
[2] = target: KRAS G12D (Homo sapiens, UniProt P01116, G12D); assay: GDP-GTP exchange assay (bodipy-GDP/GppNHp, SOS1), KRAS G12D; format: biochemical
[3] = KRAS G12V mutant, value for the most potent isomer quoted for certain compounds, read-out: G12V (KRAS G12V exchange assay IC50)
[4] = bodipy-loaded KRAS G12D 2.5 nM, 4 h pre-incubation, value for the most potent isomer quoted for certain compounds, read-out: G12D (KRAS G12D exchange assay IC50)
[5] = Table H, column G12V, for compounds isolated as several atropisomers/diastereoisomers the value for the most potent isomer is quoted, read-out: KRAS G12V exchange assay IC50
[6] = Table H, column G12D, for compounds isolated as several atropisomers/diastereoisomers the value for the most potent isomer is quoted, read-out: KRAS G12D exchange assay IC50

Sequence of KRAS G12D (P01116 1-188 isoform P01116-2 G12D): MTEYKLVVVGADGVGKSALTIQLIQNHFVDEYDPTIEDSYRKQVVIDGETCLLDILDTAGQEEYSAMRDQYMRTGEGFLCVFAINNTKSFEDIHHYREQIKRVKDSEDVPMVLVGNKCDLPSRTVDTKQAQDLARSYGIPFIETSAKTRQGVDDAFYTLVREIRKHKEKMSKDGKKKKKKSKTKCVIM
Sequence of KRAS G12V (P01116 1-188 isoform P01116-2 G12V): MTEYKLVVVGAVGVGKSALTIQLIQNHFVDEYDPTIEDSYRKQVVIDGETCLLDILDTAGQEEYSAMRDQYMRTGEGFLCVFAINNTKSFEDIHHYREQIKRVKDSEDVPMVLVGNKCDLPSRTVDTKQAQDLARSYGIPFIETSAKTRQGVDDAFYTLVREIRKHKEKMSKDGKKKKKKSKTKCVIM

Row | IC50 [1, 3] [nM] | IC50 [2, 4] [nM] | IC50 [1, 5] [nM] | IC50 [2, 6] [nM] | Compound
1 | ≤ 100 | ≤ 100 |  |  | Cc1nc2c(F)c(-c3cccc(Cl)c3Cl)c(CCC#N)cc2c2c1cc([C@H]1C[C@H](n3ccc(C(F)F)n3)CN1C(=O)C1CC1)n2[C@H]1[C@H]2CN[C@@H]1C2 [Example 318]
2 | ≤ 100 | ≤ 100 |  |  | Cc1nc(O[C@H]2C[C@H](c3cc4c(C)nc5c(F)c(-c6cccc(Cl)c6Cl)c(CCC#N)cc5c4n3[C@H]3[C@H]4CN[C@@H]3C4)N(C(=O)C3CC3)C2)ccc1C#N [Example 306]
3 | ≤ 100 | ≤ 100 |  |  | Cc1ccnc(O[C@H]2C[C@H](c3cc4c([C@@H](C)O)nc5c(F)c(-c6cccc(Cl)c6Cl)c(CCC#N)cc5c4n3[C@H]3C4CNC3C4)N(C(=O)C3CC3)C2)c1 (stereo partly shown) [Example 424]
4 | ≤ 100 | ≤ 100 |  |  | Cc1nc2c(F)c(-c3cccc(Cl)c3Cl)c(CCC#N)cc2c2c1cc([C@H]1C[C@H](Oc3cn(C)nc3C(F)(F)F)CN1C(=O)C1CC1)n2[C@H]1[C@H]2CN[C@@H]1C2 [Example 376]
5 | ≤ 100 | ≤ 100 |  |  | COC(=O)N1C[C@@H](Oc2ccccn2)C[C@@H]1c1cc2c(-c3ccc(CN(C)C)c(F)c3F)nc3c(F)c(-c4cccc(Cl)c4Cl)c(CCC#N)cc3c2n1[C@H]1[C@H]2CN[C@@H]1C2 [Example 148]
6 | ≤ 100 | ≤ 100 |  |  | Cc1nc2c(F)c(-c3cccc(Cl)c3Cl)c(CCC#N)cc2c2c1cc([C@H]1C[C@H](OCc3ccnn3C(F)F)CN1C(=O)C1CC1)n2[C@H]1[C@H]2CN[C@@H]1C2 [Example 313]
7 | ≤ 100 | ≤ 100 |  |  | Cc1nc2c(F)c(-c3cccc(Cl)c3Cl)c(CCC#N)cc2c2c1cc([C@H]1C[C@H](Oc3cnn4ccccc34)CN1C(=O)C1CC1)n2[C@H]1[C@H]2CN[C@@H]1C2 [Example 194]
8 | ≤ 100 | ≤ 100 |  |  | Cc1nc2c(F)c(-c3cccc(Cl)c3Cl)c(CCC#N)cc2c2c1cc([C@H]1C[C@H](OCc3ccc(Cl)cc3F)CN1C(=O)C1CC1)n2[C@H]1[C@H]2CN[C@@H]1C2 [Example 155]
9 | ≤ 100 | ≤ 100 |  |  | Cc1nc2c(F)c(-c3cccc(Cl)c3Cl)c(CCC#N)cc2c2c1cc([C@H]1C[C@H](Oc3cnn(C(C)C)c3)CN1C(=O)C1CC1)n2[C@H]1[C@H]2CN[C@@H]1C2 [Example 442]
10 | ≤ 100 | ≤ 100 |  |  | Cc1nc2c(F)c(-c3cccc(Cl)c3Cl)c(CCC#N)cc2c2c1cc([C@H]1C[C@H](OCc3ccn(C(F)(F)F)n3)CN1C(=O)C1(C)CC1)n2[C@H]1[C@H]2CN[C@@H]1C2 [Example 310]
11 | ≤ 100 | ≤ 100 |  |  | Cc1nc2c(F)c(-c3cccc(Cl)c3Cl)c(CCC#N)cc2c2c1cc([C@H]1C[C@H](OCc3nsc4cc(F)ccc34)CN1C(=O)C1CC1)n2[C@H]1[C@H]2CN[C@@H]1C2 [Example 256]
12 | ≤ 100 | ≤ 100 |  |  | Cc1ccnc(C)c1CO[C@H]1C[C@H](c2cc3c(C)nc4c(F)c(-c5cccc(Cl)c5Cl)c(CCC#N)cc4c3n2[C@H]2[C@H]3CN[C@@H]2C3)N(C(=O)C2(C)CC2)C1 [Example 140]
13 | ≤ 100 | ≤ 100 |  |  | Cc1nc2c(F)c(-c3cccc(Cl)c3Cl)c(CCC#N)cc2c2c1cc([C@H]1C[C@H](OC[C@@H]3CCCO3)CN1C(=O)C1CC1)n2[C@H]1[C@H]2CN[C@@H]1C2 [Example 400]
14 | ≤ 100 | ≤ 100 |  |  | Cc1nc2c(F)c(-c3cccc(Cl)c3Cl)c(CCC#N)cc2c2c1cc([C@H]1C[C@H](OCc3cccnc3)CN1C(=O)C1CC1)n2[C@H]1[C@H]2CN[C@@H]1C2 [Example 95]
15 | ≤ 100 | ≤ 100 |  |  | COc1cc(C#N)ccc1O[C@H]1C[C@H](c2cc3c(C)nc4c(F)c(-c5cccc(Cl)c5Cl)c(CCC#N)cc4c3n2[C@H]2[C@H]3CN[C@@H]2C3)N(C(=O)C2CC2)C1 [Example 292]
16 | ≤ 100 | ≤ 100 |  |  | [2H]C([2H])(O[C@H]1C[C@H](c2cc3c(C)nc4c(F)c(-c5cccc(Cl)c5Cl)c(CCC#N)cc4c3n2[C@H]2[C@H]3CN[C@@H]2C3)N(C(=O)C2CC2)C1)c1cc(C)sn1 [Example 229]
17 | ≤ 100 | ≤ 100 |  |  | Cc1nc2c(F)c(-c3cccc(Cl)c3Cl)c(CCC#N)cc2c2c1cc([C@H]1C[C@H](OCc3cnn(C(F)(F)F)c3)CN1C(=O)C1CC1)n2[C@H]1[C@H]2CN[C@@H]1C2 [Example 311]
18 | ≤ 100 | ≤ 100 |  |  | [2H]C([2H])(O[C@H]1C[C@H](c2cc3c(C)nc4c(F)c(-c5cccc(Cl)c5Cl)c(CCC#N)cc4c3n2[C@H]2[C@H]3CN[C@@H]2C3)N(C(=O)C2CC2)C1)c1nccs1 [Example 362]
19 | ≤ 100 | ≤ 100 |  |  | Cc1nc2c(F)c(-c3cccc(Cl)c3Cl)c(CCC#N)cc2c2c1cc([C@H]1C[C@H](n3cncn3)CN1C(=O)C1CC1)n2[C@H]1[C@H]2CN[C@@H]1C2 [Example 276]

Row | IC50 [1, 3] [nM] | IC50 [2, 4] [nM] | IC50 [1, 5] [nM] | IC50 [2, 6] [nM] | Compound
20 | ≤ 100 | ≤ 100 |  |  | Cc1nc2c(F)c(-c3cccc(Cl)c3Cl)c(CCC#N)cc2c2c1cc([C@H]1C[C@H](n3cc(C(C)(C)C(F)F)nn3)CN1C(=O)C1CC1)n2[C@H]1C2CNC1C2 (stereo partly shown) [Example 225]
21 | ≤ 100 | ≤ 100 |  |  | Cc1nc2c(F)c(-c3cccc(Cl)c3Cl)c(CCC#N)cc2c2c1cc([C@H]1C[C@H](n3cc(CN4CCOCC4=O)nn3)CN1C(=O)C1CC1)n2[C@H]1[C@H]2CN[C@@H]1C2 [Example 323]
22 | ≤ 100 | ≤ 100 |  |  | Cc1nc2c(F)c(-c3cccc(Cl)c3Cl)c(CCC#N)cc2c2c1cc([C@H]1C[C@H](Oc3cccc(C(F)(F)F)c3)CN1C(=O)C1CC1)n2[C@H]1[C@H]2CN[C@@H]1C2 [Example 172]
23 | ≤ 100 | ≤ 100 |  |  | Cc1nc2c(F)c(-c3cccc(Cl)c3Cl)c(CCC#N)cc2c2c1cc([C@H]1C[C@H](OCc3ccccc3C(F)(F)F)CN1C(=O)C1CC1)n2[C@H]1[C@H]2CN[C@@H]1C2 [Example 117]
24 |  |  | ≤ 100 | ≤ 100 | Cc1nc2c(F)c(-c3cccc(Cl)c3Cl)c(CCC#N)cc2c2c1cc([C@H]1C[C@H](n3cc(C4(C)CCCCC4)nn3)CN1C(=O)C1CC1)n2[C@H]1[C@H]2CN[C@@H]1C2 [Example 66, 3-(1-((1R,4R,5S)-2-Azabicyclo[2.1.1]hexan-5-yl)-2-((2R,4S)-1-(cyclopropanecarbonyl)-4-(4-(1-methylcyclohexyl)-1H-1,2,3-triazol-1-yl)pyrrolidin-2-yl)-7-(2,3-dichlorophenyl)-6-fluoro-4-methyl-1H-pyrrolo[3,2-c]quinolin-8-yl)propanenitrile]
25 | ≤ 100 | ≤ 100 |  |  | Cc1nc2cc(O[C@H]3C[C@H](c4cc5c(C)nc6c(F)c(-c7cccc(Cl)c7Cl)c(CCC#N)cc6c5n4[C@H]4[C@H]5CN[C@@H]4C5)N(C(=O)C4CC4)C3)ccc2s1 [Example 132]
26 | ≤ 100 | ≤ 100 |  |  | Cc1cnn([C@H]2C[C@H](c3cc4c(C)nc5c(F)c(-c6cccc(Cl)c6Cl)c(CCC#N)cc5c4n3[C@H]3[C@H]4CN[C@@H]3C4)N(C(=O)C3CC3)C2)c1 [Example 279]
27 | ≤ 100 | ≤ 100 |  |  | Cc1nc2c(F)c(-c3cccc(Cl)c3Cl)c(CCC#N)cc2c2c1cc([C@H]1C[C@H](Oc3cn(C)nc3C(F)F)CN1C(=O)C1CC1)n2[C@H]1[C@H]2CN[C@@H]1C2 [Example 299]
28 | ≤ 100 | ≤ 100 |  |  | Cc1nc2c(F)c(-c3cccc(Cl)c3Cl)c(CCC#N)cc2c2c1cc([C@H]1C[C@H](OCc3ccccc3C#N)CN1C(=O)C1CC1)n2[C@H]1[C@H]2CN[C@@H]1C2 [Example 98]
29 | ≤ 100 | ≤ 100 |  |  | Cc1nc2c(F)c(-c3cccc(Cl)c3Cl)c(CCC#N)cc2c2c1cc([C@H]1C[C@H](O[C@H](C)c3ccccn3)[C@@H](C)N1C(=O)C1CC1)n2[C@H]1[C@H]2CN[C@@H]1C2 [Example 244]
30 | ≤ 100 | ≤ 100 |  |  | Cc1nc2c(F)c(-c3cccc(Cl)c3Cl)c(CCC#N)cc2c2c1cc([C@H]1C[C@H](Oc3cc(Cl)ccn3)CN1C(=O)C1CC1)n2[C@H]1[C@H]2CN[C@@H]1C2 [Example 297]
31 | ≤ 100 | ≤ 100 |  |  | Cc1nc2c(F)c(-c3cccc(Cl)c3Cl)c(CCC#N)cc2c2c1cc([C@H]1C[C@H](n3nnnc3C)CN1C(=O)C1CC1)n2[C@H]1[C@H]2CN[C@@H]1C2 [Example 397]
32 | ≤ 100 | ≤ 100 |  |  | Cc1nc2c(F)c(-c3cccc(Cl)c3Cl)c(CCC#N)cc2c2c1cc([C@H]1C[C@H](n3cc(CC4CCNC4=O)nn3)CN1C(=O)C1CC1)n2[C@H]1[C@H]2CN[C@@H]1C2 (stereo partly shown) [Example 269]
33 | ≤ 100 | ≤ 100 |  |  | Cc1nc2c(F)c(-c3cccc(Cl)c3Cl)c(CCC#N)cc2c2c1cc([C@H]1C[C@H](n3cc(C4CC4)nn3)CN1C(=O)C1CC1)n2[C@H]1[C@H]2CN[C@@H]1C2 [Example 179]
34 | ≤ 100 | ≤ 100 |  |  | Cc1nc2c(F)c(-c3cccc(Cl)c3Cl)c(CCC#N)cc2c2c1cc([C@H]1C[C@H](OCc3cccc(S(C)(=O)=O)c3)CN1C(=O)C1CC1)n2[C@H]1[C@H]2CN[C@@H]1C2 [Example 164]
35 | ≤ 100 | ≤ 100 |  |  | Cc1nc2c(F)c(-c3cccc(Cl)c3Cl)c(CCC#N)cc2c2c1cc([C@H]1C[C@H](n3cc(C4CCCC4)nn3)CN1C(=O)C1CC1)n2[C@H]1[C@H]2CN[C@@H]1C2 [Example 183]
36 |  |  | ≤ 100 | ≤ 100 | Cc1nc2c(F)c(-c3cccc(Cl)c3Cl)c(CCC#N)cc2c2c1cc([C@H]1C[C@H](O[C@@H]3CCOC3)CN1C(=O)C1CC1)n2[C@H]1[C@H]2CN[C@@H]1C2 [Example 30]
37 | ≤ 100 | ≤ 100 |  |  | Cc1nc2c(F)c(-c3cccc(Cl)c3Cl)c(CCC#N)cc2c2c1cc([C@H]1C[C@H](Oc3ccc(=O)n(C)c3)CN1C(=O)C1CC1)n2[C@H]1[C@H]2CN[C@@H]1C2 [Example 420]
38 | ≤ 100 | ≤ 100 |  |  | Cc1nc2c(F)c(-c3cccc(Cl)c3Cl)c(CCC#N)cc2c2c1cc([C@H]1C[C@H](OCC3(C#N)CCC3)CN1C(=O)C1CC1)n2[C@H]1[C@H]2CN[C@@H]1C2 [Example 339]
